Here are results for 15 compounds from PMC8485799, “Synthesis and Antiprotozoal Profile of 3,4,5‐Trisubstituted Isoxazoles” (ChemistryOpen, 2021).

The nature of data set [1]: Cytotoxicity assay in mammalian cells (MTT), fibroblasts, 72 h. Type of data set: cell-based. Conditions: mouse, L929 fibroblast cells, pH 7.2; 50 % inhibition of fibroblast growth, 72 h, MTT. The gist of the method: (§1)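 Cells pre-grown 24 h to confluence (L929 2.5×10^5, J774 A1 5×10^5 cells.mL^−1), then exposed to compound dilutions at 37 °C, 5 % CO2: L929 in DMEM/10 % FBS for 72 h, J774 A1 in RPMI‐1640/10 % FBS for 48 h. MTT (2 mg.mL^−1, 4 h), formazan read at […]; CC50 from viability versus untreated controls.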

The nature of data set [2]: Cytotoxicity assay in mammalian cells (MTT), macrophages, 48 h. The note with it: mouse, J774 A1 macrophages, pH 7.2; 50 % inhibition of macrophages growth, 48 h, MTT. It counts as cell-based. The procedure, abridged: as §1
In data set [3] the test system is epimastigote forms of Trypanosoma cruzi (Y strain). As to the kind of experiment: Antiproliferative assay (XTT), epimastigote forms, 96 h. It counts as cell-based. Conditions: for IC50: Trypanosoma cruzi, epimastigote form, 96 h, XTT, read-out: T. cruzi IC50; for SIT-F, selectivity index (Fibroblast CC50/T. cruzi IC50): fibroblast vs epimastigote; for SIT-M, selectivity index (Macrophages CC50/T. cruzi IC50): macrophages vs epimastigote. The procedure, abridged:
(§2)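 Parasites at 1×10^6 mL^−1 with compound (DMSO stock diluted in medium): L. amazonensis promastigotes in Warren medium + 10% FBS at 25 °C for 72 h, T. cruzi epimastigotes in LIT medium + 10% FBS at 28 °C for 96 h. Viability by XTT/PMS for 4 h, absorbance at 450 nm. IC50 from % viable versus control.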
On the technique in general: Formazan colour is commonly taken as a measure of viable cells.

The subject of data set [4] is promastigote forms of Leishmania amazonensis (WHOM/BR/75/JOSEFA strain). As to the kind of experiment: Antiproliferative assay (XTT), promastigote forms, 72 h. It counts as cell-based. The note with it: for IC50: Leishmania amazonensis, promastigote form, 72 h, XTT, read-out: L. amazonensis IC50; for SIL-F, selectivity index (Fibroblast CC50/L. amazonensis IC50): fibroblast vs promastigote; for SIL-M, selectivity index (Macrophages CC50/L. amazonensis IC50): macrophages vs promastigote. The gist of the method:
as §2

Broadly, the CC50 is the concentration that lowers cell viability or growth by half. Read a high CC50 as better tolerance by the cells. For orientation: melting point means the temperature, or range, at which the solid turns liquid. The term IC50 denotes the point on the concentration scale where inhibition reaches its midpoint. Compound `O=C(N/N=C/c1ccccc1)c1noc(-c2ccc(Cl)cc2)c1CNc1ccccc1` [4 da] came in with a melting point of 189.3 to 191.8 °C. It took 266 ± 5.9 µM to reach half-maximal cytotoxicity in data set [1] (CC50 at 72 h). Also, the CC50 at 48 h in data set [2] was determined as 236 ± 9.6 µM. Also, in data set [3], the IC50 was 49.7 ± 2.2 µM; the “SIT-F, selectivity index (Fibroblast CC50/T. cruzi IC50)” value (from here on “SIT-F, selectivity index”) is recorded as 5.34; the “SIT-M, selectivity index (Macrophages CC50/T. cruzi IC50)” value (“SIT-M, selectivity index” for short) turned out to be 4.74. In data set [4], the IC50 was found to be 48.6 ± 2.8 µM; the “SIL-F, selectivity index (Fibroblast CC50/L. amazonensis IC50)” value (shortened to “SIL-F, selectivity index”) came out at 5.46; the “SIL-M, selectivity index (Macrophages CC50/L. amazonensis IC50)” value (from here on “SIL-M, selectivity index”) came to 4.85.
On to `O=C(N/N=C/c1ccccc1)c1noc(-c2ccc(Cl)cc2)c1CNc1ccc(Cl)cc1` [4 db], for which the melting point lay within 167.5 to 169.3 °C. This compound gave a CC50 at 72 h in data set [1] of 404.7 ± 4 µM. For the same compound, the CC50 at 48 h in data set [2] is 395 ± 9.9 µM. In data set [3], the IC50 is 71 ± 4.7 µM; the “SIT-F, selectivity index” value was 5.70; the “SIT-M, selectivity index” value is 5.56. Also, in data set [4], the IC50 was determined as 67.4 ± 3.9 µM; the “SIL-F, selectivity index” value is 6.00; the “SIL-M, selectivity index” value is given as 5.86.
Take `COc1ccc(NCc2c(C(=O)N/N=C/c3ccccc3)noc2-c2ccc(Cl)cc2)cc1` [4 dc]: the melting point lay in the range of 176.3 to 177.1 °C. Half-maximal cytotoxicity in data set [1] (CC50 at 72 h) was put at 296 ± 9 µM. For the same compound, the CC50 at 48 h in data set [2] stood at 245 ± 7.9 µM. In data set [3], the IC50 worked out at 65.9 ± 6.1 µM; the “SIT-F, selectivity index” value came to 4.49; the “SIT-M, selectivity index” value is 3.71. Also, in data set [4], the IC50 is 54.3 ± 2.7 µM; the “SIL-F, selectivity index” value is 5.45; the “SIL-M, selectivity index” value is 4.50.
Take `O=C(N/N=C/c1ccccn1)c1noc(-c2ccc([N+](=O)[O-])cc2)c1CNc1ccccc1` [5 aa, 3‐[(2E)‐N'‐(2‐pyridinylmethylene)hydrazinecarbonyl]‐4‐(phenyl)aminomethyl‐5‐(4‐nitrophenyl)isoxazole]: the melting point was 223.8 to 225.5 °C. The compound further showed a CC50 at 72 h in data set [1] of 407.3 ± 3.9 µM. Further, the CC50 at 48 h in data set [2] was found to be 388 ± 7.9 µM. Besides, in data set [3], the IC50 came to 123 ± 10.9 µM; the “SIT-F, selectivity index” value is listed as 3.31; the “SIT-M, selectivity index” value was 3.16. In data set [4], the IC50 is 126 ± 2.1 µM; the “SIL-F, selectivity index” value is 3.24; the “SIL-M, selectivity index” value was found to be 3.09.
As for `O=C(N/N=C/c1ccccn1)c1noc(-c2ccccc2)c1CNc1ccccc1` [5 ba], the melting point is 194.8 to 195.6 °C. Also, in data set [1], the CC50 at 72 h is 330 ± 5.6 µM. Moreover, the CC50 at 48 h in data set [2] amounted to 303 ± 9.5 µM. For the same compound, in data set [3], the IC50 was determined as 33.6 ± 4.4 µM; the “SIT-F, selectivity index” value stood at 9.80; the “SIT-M, selectivity index” value worked out at 9.02. Moreover, in data set [4], the IC50 was found to be 35.8 ± 4.8 µM; the “SIL-F, selectivity index” value came out at 9.20; the “SIL-M, selectivity index” value was determined as 8.47.
`O=C(N/N=C/c1ccccn1)c1noc(-c2ccccc2)c1CNc1ccc(Cl)cc1` [5 bb] had a melting point of 209.3 to 211.7 °C. In data set [1], this compound showed a CC50 at 72 h of 338 ± 8.6 µM. The same compound returned a CC50 at 48 h in data set [2] of 301 ± 5.9 µM. In addition, in data set [3], the IC50 was 26.9 ± 0.9 µM; the “SIT-F, selectivity index” value is listed as 12.57; the “SIT-M, selectivity index” value was 11.18. Moreover, in data set [4], the IC50 was determined as 27.8 ± 4.1 µM; the “SIL-F, selectivity index” value is 12.38; the “SIL-M, selectivity index” value was 11.01.
In turn, `O=C(N/N=C/c1ccccn1)c1noc(-c2ccc(F)cc2)c1CNc1ccccc1` [5 ca] registered a melting point of 157.7 to 159.6 °C. In data set [1], this compound gave a CC50 at 72 h of 403 ± 8.6 µM. The compound also displayed a CC50 at 48 h in data set [2] of 374 ± 5.8 µM. Further, in data set [3], the IC50 came to 69.5 ± 3.7 µM; the “SIT-F, selectivity index” value amounted to 5.79; the “SIT-M, selectivity index” value amounted to 5.38. Besides, in data set [4], the IC50 was 74.8 ± 2.9 µM; the “SIL-F, selectivity index” value is listed as 5.38; the “SIL-M, selectivity index” value was 5.01.
Consider `O=C(N/N=C/c1ccccn1)c1noc(-c2ccc(F)cc2)c1CNc1ccc(Cl)cc1` [5 cb], for which the melting point was 202.4 to 203.9 °C. The CC50 at 72 h in data set [1] was determined as 154 ± 7.8 µM. Moreover, in data set [2], the CC50 at 48 h is 112 ± 6.8 µM. Besides, in data set [3], the IC50 was 39.4 ± 3.1 µM; the “SIT-F, selectivity index” value was 3.91; the “SIT-M, selectivity index” value is listed as 2.84. Moreover, in data set [4], the IC50 came out at 22.6 ± 5 µM; the “SIL-F, selectivity index” value was determined as 6.81; the “SIL-M, selectivity index” value stood at 4.96.
In turn, `O=C(N/N=C/c1ccccn1)c1noc(-c2ccc(Cl)cc2)c1CNc1ccccc1` [5 da] had a melting point of 180.5 to 182.9 °C. In data set [1], it took 298 ± 5.7 µM to reach half-maximal cytotoxicity (CC50 at 72 h). The CC50 at 48 h in data set [2] came to 289 ± 9.5 µM. Further, in data set [3], the IC50 turned out to be 72.6 ± 3.8 µM; the “SIT-F, selectivity index” value was determined as 4.10; the “SIT-M, selectivity index” value came to 3.98. In addition, in data set [4], the IC50 is 69 ± 8.7 µM; the “SIL-F, selectivity index” value is 4.32; the “SIL-M, selectivity index” value is recorded as 4.19.
`O=C(N/N=C/c1ccccn1)c1noc(-c2ccc(Cl)cc2)c1CNc1ccc(Cl)cc1` [5 db] registered a melting point of 175.7 to 176.4 °C. This compound also gave a half-maximal cytotoxic concentration (CC50) at 72 h in data set [1] of 203 ± 3.1 µM. Moreover, half-maximal cytotoxicity in data set [2] (CC50 at 48 h) was put at 198 ± 4.6 µM. Besides, in data set [3], the IC50 stood at 97.3 ± 3.6 µM; the “SIT-F, selectivity index” value is listed as 2.08; the “SIT-M, selectivity index” value stood at 2.04. Moreover, in data set [4], the IC50 stood at 87.9 ± 2 µM; the “SIL-F, selectivity index” value amounted to 2.30; the “SIL-M, selectivity index” value worked out at 2.26.
`COc1ccc(NCc2c(C(=O)N/N=C/c3ccccn3)noc2-c2ccc(Cl)cc2)cc1` [5 dc] had a melting point of 210.4 to 212.4 °C. For the same compound, in data set [1], it took 107 ± 2.2 µM to reach half-maximal cytotoxicity (CC50 at 72 h). The compound also gave a CC50 at 48 h in data set [2] of 98.6 ± 2.3 µM. In addition, in data set [3], the IC50 was 17.9 ± 0.7 µM; the “SIT-F, selectivity index” value turned out to be 6.00; the “SIT-M, selectivity index” value worked out at 5.51. Further, in data set [4], the IC50 came out at 17.4 ± 2 µM; the “SIL-F, selectivity index” value came out at 6.17; the “SIL-M, selectivity index” value came to 5.67.
On to `O=C(N/N=C/c1ccc(-c2cccs2)s1)c1noc(-c2ccc([N+](=O)[O-])cc2)c1CNc1ccccc1` [6 aa, 3‐[(2E)‐N'‐(2,2'‐bithienyl‐5‐methylene)hydrazinecarbonyl]‐4‐(phenyl)aminomethyl‐5‐(4‐nitrophenyl)isoxazole], for which the melting point lay in the range of 232.5 to 233.9 °C. For the same compound, the midpoint of cytotoxicity in data set [1], the CC50 at 72 h, lay at 287 ± 7.3 µM. The same compound displayed a CC50 at 48 h in data set [2] of 210 ± 9.6 µM. In data set [3], the IC50 was 38.4 ± 2.1 µM; the “SIT-F, selectivity index” value is given as 7.48; the “SIT-M, selectivity index” value came to 5.46. Also, in data set [4], the IC50 came to 32.9 ± 0.9 µM; the “SIL-F, selectivity index” value is given as 8.74; the “SIL-M, selectivity index” value was determined as 6.37.
`O=C(N/N=C/c1ccc(-c2cccs2)s1)c1noc(-c2ccccc2)c1CNc1ccc(Cl)cc1` [6 bb] had a melting point of 211.1 to 213.9 °C. In data set [1], this compound registered a CC50 at 72 h of 226 ± 8.7 µM. In data set [2], this compound yielded a CC50 at 48 h of 188 ± 7.4 µM. Also, in data set [3], the IC50 worked out at 19 ± 0.7 µM; the “SIT-F, selectivity index” value was found to be 11.92; the “SIT-M, selectivity index” value is on record as 9.90. In addition, in data set [4], the IC50 is 18.4 ± 1.2 µM; the “SIL-F, selectivity index” value stood at 12.31; the “SIL-M, selectivity index” value is reported as 10.22.
The compound `COc1ccc(NCc2c(C(=O)N/N=C/c3ccc(-c4cccs4)s3)noc2-c2ccccc2)cc1` [6 bc] yielded a melting point of 165.5 to 167 °C. The compound further returned a CC50 at 72 h in data set [1] of 198 ± 5.9 µM. In data set [2], it took 170 ± 3.3 µM to reach half-maximal cytotoxicity (CC50 at 48 h). In data set [3], the concentration for half-maximal inhibition (IC50) was found to be 18.1 ± 2.4 µM; the “SIT-F, selectivity index” value was 10.9; the “SIT-M, selectivity index” value turned out to be 9.42. Besides, in data set [4], the IC50 was found to be 17.2 ± 3.1 µM; the “SIL-F, selectivity index” value worked out at 11.5; the “SIL-M, selectivity index” value was determined as 9.91.
Regarding `O=C(N/N=C/c1ccc(-c2cccs2)s1)c1noc(-c2ccc(Cl)cc2)c1CNc1ccccc1` [6 da], the melting point was in the range of 208.4 to 209.9 °C. In data set [1], this compound came in with a CC50 at 72 h of 347 ± 8.4 µM. In data set [2], the CC50 at 48 h is 312 ± 4.3 µM. In data set [3], the IC50 worked out at 27.2 ± 2.5 µM; the “SIT-F, selectivity index” value turned out to be 12.76; the “SIT-M, selectivity index” value turned out to be 11.47. Further, in data set [4], the IC50 was 28 ± 1.3 µM; the “SIL-F, selectivity index” value is given as 12.39; the “SIL-M, selectivity index” value worked out at 11.14.
